# Test results published in PMC6915728 (Nature Communications, 2019).
# What was measured:
# [1] = test system: E. coli K12 BW25113 carrying the pooled ASKA overexpression plasmid library (~4400 ORFs); assay: Chemical-genetic profiling: pooled competitive growth of the ASKA gene-overexpression library with and without AMP, deep sequencing readout; type: cell-based, Escherichia coli
# Procedure, shortened: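 Pooled ASKA plasmids in BW25113, IPTG-induced (100 µM) in MS medium with chloramphenicol, competed ~12 generations with or without AMP at a sub-inhibitory level doubling population doubling time. Plasmid pools exonuclease-cleaned and deep-sequenced for relative plasmid abundance; two replicates per AMP, five untreated; empty-vector strain controls genomic background.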
# [2] = test system: AMP-evolved E. coli lines; assay: Cross-resistance / collateral sensitivity: relative MIC change of 38 laboratory-evolved AMP-resistant lines vs parental strain; type: cell-based, Escherichia coli; settings: measured here
# Description: Here, we extended this dataset by measuring susceptibility changes of the same evolved lines to four additional AMPs using identical protocols to represent AMPs from all four clusters (Supplementary Fig. 15a, see also Methods). Overall, the resulting dataset of susceptibility profiles provides a comprehensive map of cross-resistance and collateral sensitivity between AMPs representing various modes of action.
# To characterize the cross-resistance of the 38 E. coli lineages we obtained relative MIC changes that are, the MIC values of the evolved lines compared to these of the parental strain, from two data sources. First, we used already measured relative MIC changes from Spohn et al. Supplementary data 4[20]. […] Second, we extended this dataset by measuring the relative MIC changes of the same evolved lines to four additional AMPs using identical protocol. […] In this way, AMPs from each cluster were represented in the dataset.
# Supplementary Figure 15. […] Relative change in MIC was determined for each evolved line by comparing its MIC to the ancestral cell line (control). […] CAP18-adaped lines were not included in the analysis because CAP18 is known as a membrane-targeting AMP in the literature. c, Cross-resistance interactions are enriched between membrane-targeting AMPs that are in the same chemical-genetic clusters (i.e. AMP pairs within C1 and within C2 clusters) (Significant difference: ** P = 0.0082 from two-sided Fisher’s exact test, n = 61 and 62 for within cluster and between clusters, respectively). […] Source data are provided as a Source Data file.
# [3] = test system: bacterial species in which the gene showed activity; settings: Salmonella enterica serovar Typhimurium; ref http://aac.asm.org/content/52/8/2734.full.pdf+html; cited from earlier work
sequence,measurement,setting,value
"RRRPRPPYLPRPRPPPFFPPRLPPRIPPGFPPRFPPRFP [PR39, PR-39, cathelicidin, source pig; cluster C4]",Effect of folA overexpression on susceptibility,[1]; gene folA (dihydrofolate reductase) overexpressed,resistance
same,"Overexpression phenotype, Chemical-genetic profile","[1]; gene ptrB, whether the literature phenotype was captured by the overexpression screen (9 out of 13 captured)",Confirmed
same,"Overexpression phenotype, Chemical-genetic profile","[1]; gene sbmA, whether the literature phenotype was captured by the overexpression screen",Confirmed
same,Relative change in MIC (MIC of the AMP-adpated line / MIC of the ancestral strain),[2]; AMP-adapted line BAC5_3,1.32
same,Relative change in MIC (MIC of the AMP-adpated line / MIC of the ancestral strain),[2]; AMP-adapted line BAC5_5,1.464
same,Relative change in MIC (MIC of the AMP-adpated line / MIC of the ancestral strain),[2]; AMP-adapted line BAC5_7,1.584
same,Relative change in MIC (MIC of the AMP-adpated line / MIC of the ancestral strain),[2]; AMP-adapted line BAC5_10,1.57
same,Relative change in MIC (MIC of the AMP-adpated line / MIC of the ancestral strain),[2]; AMP-adapted line CAP18_2,1
same,Relative change in MIC (MIC of the AMP-adpated line / MIC of the ancestral strain),[2]; AMP-adapted line CAP18_5,0.915
same,Relative change in MIC (MIC of the AMP-adpated line / MIC of the ancestral strain),[2]; AMP-adapted line CAP18_6,0.83
same,Relative change in MIC (MIC of the AMP-adpated line / MIC of the ancestral strain),[2]; AMP-adapted line CAP18_8,1
same,Relative change in MIC (MIC of the AMP-adpated line / MIC of the ancestral strain),[2]; AMP-adapted line CAP18_10,0.83
same,Relative change in MIC (MIC of the AMP-adpated line / MIC of the ancestral strain),[2]; AMP-adapted line HBD3_3,1
same,Relative change in MIC (MIC of the AMP-adpated line / MIC of the ancestral strain),[2]; AMP-adapted line HBD3_6,0.915
same,Relative change in MIC (MIC of the AMP-adpated line / MIC of the ancestral strain),[2]; AMP-adapted line HBD3_8,1.1
same,Relative change in MIC (MIC of the AMP-adpated line / MIC of the ancestral strain),[2]; AMP-adapted line HBD3_10,1.1
same,Relative change in MIC (MIC of the AMP-adpated line / MIC of the ancestral strain),[2]; AMP-adapted line LL37_1,1.1
same,Relative change in MIC (MIC of the AMP-adpated line / MIC of the ancestral strain),[2]; AMP-adapted line LL37_3,1.1
same,Relative change in MIC (MIC of the AMP-adpated line / MIC of the ancestral strain),[2]; AMP-adapted line LL37_6,1.1
same,Relative change in MIC (MIC of the AMP-adpated line / MIC of the ancestral strain),[2]; AMP-adapted line LL37_7,1.2
same,Relative change in MIC (MIC of the AMP-adpated line / MIC of the ancestral strain),[2]; AMP-adapted line LL37_10,0.915
same,Relative change in MIC (MIC of the AMP-adpated line / MIC of the ancestral strain),[2]; AMP-adapted line PEX_1,1
same,Relative change in MIC (MIC of the AMP-adpated line / MIC of the ancestral strain),[2]; AMP-adapted line PEX_4,1
same,Relative change in MIC (MIC of the AMP-adpated line / MIC of the ancestral strain),[2]; AMP-adapted line PEX_5,0.915
same,Relative change in MIC (MIC of the AMP-adpated line / MIC of the ancestral strain),[2]; AMP-adapted line PEX_6,1
same,Relative change in MIC (MIC of the AMP-adpated line / MIC of the ancestral strain),[2]; AMP-adapted line PEX_7,1
same,Relative change in MIC (MIC of the AMP-adpated line / MIC of the ancestral strain),[2]; AMP-adapted line PROA_2,1
same,Relative change in MIC (MIC of the AMP-adpated line / MIC of the ancestral strain),[2]; AMP-adapted line PROA_3,0.915
same,Relative change in MIC (MIC of the AMP-adpated line / MIC of the ancestral strain),[2]; AMP-adapted line PROA_7,1
same,Relative change in MIC (MIC of the AMP-adpated line / MIC of the ancestral strain),[2]; AMP-adapted line PROA_8,1
same,Relative change in MIC (MIC of the AMP-adpated line / MIC of the ancestral strain),[2]; AMP-adapted line PROA_9,1
same,Relative change in MIC (MIC of the AMP-adpated line / MIC of the ancestral strain),[2]; AMP-adapted line PXB_2,1.728
same,Relative change in MIC (MIC of the AMP-adpated line / MIC of the ancestral strain),[2]; AMP-adapted line PXB_5,1.44
same,Relative change in MIC (MIC of the AMP-adpated line / MIC of the ancestral strain),[2]; AMP-adapted line PXB_6,1.728
same,Relative change in MIC (MIC of the AMP-adpated line / MIC of the ancestral strain),[2]; AMP-adapted line PXB_8,1.44
same,Relative change in MIC (MIC of the AMP-adpated line / MIC of the ancestral strain),[2]; AMP-adapted line PXB_10,1
same,Gene that modulates bacterial susceptibility to the AMP,[3],sbmA
